In US9642819B2, “Low dosage serotonin 5-HT2A receptor agonist to suppress inflammation” (BOARD OF SUPERVISORS OF LOUISIANA STATE UNIVERSITY AND …, priority 2008, dated 2017):
“Also recorded” adds a separate entry of the source.

Columns and labels:
[1] = test system: nitrite accumulation in C6 glioma cells; settings: cocktail of TNF-α, read-out: IC50 for partial block of LPS and cytokine stimulated nitrite accumulation; cited from earlier work
[2] = test system: ICAM-1 gene expression; assay: TNF-α induced ICAM-1 gene expression in primary rat aortic smooth muscle cells; type: cell-based; settings: for block of TNF-α induced ICAM1 gene expression at 1 nM: VCAM1 and IL6 identical
Method: (§1) RASM cells and treatment. Rat aortic smooth muscle (RASM) cells were isolated from adult 180 g male Sprague-Dawley rats and provided by the Cell and Molecular Core Facility in the Department of Pharmacology at LSUHSC-NO. Isolated RASM cells were grown in M-199 media containing 10% fetal bovine serum (Gibco), 100 units/mL penicillin, and 100 µg/mL streptomycin, and incubated at 37° C. in 5% CO2. Cells for all assays were used between passages 3 and 5. Prior to treatments, cells were grown in M-199 media with 10% fetal bovine serum (FBS) until 30-50% confluent. For most assays, cells were treated with (R)-DOI, or other drugs as indicated, at specific concentrations for 24 hours, followed by TNF-α (10 ng/ml) and (R)-DOI at the same pretreatment concentrations in fresh M-199 media. After another 24 hours, the cells were scraped, pelleted, and processed for RNA.
(§2) RNA isolation and Quantitative Realtime-PCR. RNA was extracted from cells using Illustra RNAspin Mini kits from GE Healthcare Life Sciences (Piscataway, N.J.) following protocols supplied by the manufacturer. First strand cDNA was generated using the ImProm-II cDNA synthesis kit (Promega) following the manufacturers protocols. Q-RT-PCR was performed using the ProbeLibrary system from Roche (Indianapolis, Ind.) in combination with the HotStart-IT probe qpcr master mix from USB Biological (Cleveland, Ohio) following manufactures protocols.
(§3) Primers were synthesized by IDT (Coralville, Iowa). ProbeLibrary probes from Roche were: U3, U74, U13, U106, U79 for 5-HT2AR, ICAM-1, VCAM-1, IL-6, and cyclophillin B, respectively. Quantitative determination of gene expression levels using a 2-step cycling protocol was performed on a MyIQ-5 Cycler (Bio-Rad, Hercules Calif.). Relative gene expression levels were calculated using the 2^[−ΔΔC(T)] method. Levels of all targets from the test samples were normalized to rat cyclophillin B expression.
(§4) To examine the effects of 5-HT2A receptor activation on TNF-α mediated proinflammatory gene expression, RASM cells were pretreated with (R)-DOI, a selective 5-HT2 receptor agonist, as described above. Dose-response curves were determined for the effects on ICAM-1, VCAM-1, and IL-6 gene expression for twelve different concentrations of (R)-DOI ranging from 0.1 pM to 100 nM, with each experiment repeated in triplicate. In FIGS. 1A-1C, the Y-axis represents a percent of TNF-α for the dose of (R)-DOI indicated on the X-axis.

[3] = test system: ICAM-1 gene expression; assay: TNF-α induced ICAM-1 gene expression in rat C6 glioma cells; type: cell-based; settings: 1 nM and 50 nM prior to TNF-α
Method: Experiments were conducted to analyze for the effect of 5-HT2A receptor activation on proinflammatory marker expression in other cell types. Human neuroblastoma cells (SHSY5Y) and rat glioma cells (C6) can be obtained from the American Type Culture Collection (Manassas, Va.), but were provided Purdue University. The cells were grown in DMEM+10% FBS. DMEM was made and provided by the Cell and Molecular Core of the Mentoring in Cardiovascular Biology COBRE center at LSUHSC-NO. FBS was purchased from Invitrogen (Carlsbad, Calif.). Primary rat aortic endothelial cells were prepared fresh and provided by the Cell and Molecular Core of the Mentoring in Cardiovascular Biology COBRE center at LSUHSC-NO. Cells were tested at passages 3-4. Cells were grown in endothelial cell growth medium (Cell Applications, Inc.). Primary rat bronchoaveolar macrophage cells were obtained by lung lavage from rats and used at day 3 or 4 post plating in DMEM+10% FBS.
All treatments with 5-HT2A receptor agonists occurred 1 hour prior to the addition of TNF-alpha (10 ng/ml) or LPS (100 ng or 1 mg) depending on the experiment. All RNA isolations, cDNA synthesis, QPCR gene expression assays examining ICAM1, VCAM1, and IL6, and data analysis were performed as described above in Example 1, except the primers were different for the human cell experiment. […]

[4] = test system: ICAM-1, VCAM-1, and IL-6 gene expression; assay: TNF-α induced proinflammatory gene expression (ICAM-1, VCAM-1, IL-6) by Q-RT-PCR in RASM cells; type: cell-based, rat; settings: for effect of receptor antagonist on the inhibitory effects of (R)-DOI: antagonist 100 nM 30 minutes prior to 1 nM (R)-DOI, then TNF-α
Method: as §1, §2, §3, §4

[5] = test system: Nitric Oxide Synthetase (NOS) activity; assay: NOS activity: nitrite levels in culture medium of RASM cells after TNF-α; type: cell-based, rat; settings: 100 nM prior to 1 nM (R)-DOI
Method: Nitric Oxide Synthetase (NOS) Activity. NOS activity was determined by detection of nitrite levels in the cell culture medium following (R)-DOI/TNF-α treatments utilizing the Nitrate Detection kit from Assay Designs (Ann Arbor, Mich.) following the manufacturers protocols. Absorbances were detected at 539 nm on a […] SpectraMax M2 plate reader.
A key participant in inflammatory processes is NOS activity (Guzik et al., 2003). NOS activity can regulate NF-kB activation (Ckless et al., 2007), and cytokine pathway-activated NF-kB can transcriptionally regulate iNOS gene expression (Guo et al., 2007). To examine the effects of 5-HT2A receptor activation on this component of inflammatory mechanisms, primary RASM cells were used to examine the ability of 1 nM (R)-DOI to block TNF-α mediated increases in nitrite levels.
As an indicator of NOS activity, nitrite levels were measured in the cell culture media after treatments and are shown in FIG. 6 as % control. […] Pretreatment with 1 nM (R)-DOI for 24 hours blocked TNF-α mediated increases in nitrite accumulation (DOI+T).

[6] = test system: nuclear translocation of p65; assay: Nuclear translocation of NF-κB subunit p65 in RASM cells; type: cell-based, rat; settings: pretreatment of the 1 hour time point
Method: Nuclear Translocation of p65. RASM cells were grown in M-199 medium+10% FBS until 50% confluent in 8 well chamber slides. Cells were treated with 1 nM (R)-DOI for various times as indicated, and TNF-α (10 ng/ml; tumor necrosis factor alpha) added. Thirty minutes after TNF-α treatment, cells were fixed and processed with rabbit anti p65 primary and Alexafluor 488-conjugated goat secondary antibodies as described in Zerfaoui et al. (2008) (Zerfaoui et al., 2008). Fluorescent signal was visualized on a Leica DMRA2 fluorescent microscope.
Both ICAM-1 and VCAM-1 gene transcription during inflammatory processes is regulated by the transcription factor NF-κB (Collins et al., 1995). During this process, NF-κB must be activated, and then translocated from the cytoplasm to the nucleus, where it promotes gene transcription. To investigate whether 5-HT2A receptor stimulated inhibition of NF-κB activation and translocation might be a possible mechanism for blockade of proinflammatory gene expression changes, a series of immunohistochemical experiments were conducted examining p65 translocation in RASM cells. TNF-α treatment for 30 minutes caused the expected dramatic shift in localization of the p65 subunit of NF-κB from the cytoplasm to the nucleus (FIG. 7A). […]

[7] = biological target: histamine H1 receptors (Homo sapiens, UniProt P35367); settings: cited from earlier work
Chain of histamine H1 receptors (P35367 whole entry): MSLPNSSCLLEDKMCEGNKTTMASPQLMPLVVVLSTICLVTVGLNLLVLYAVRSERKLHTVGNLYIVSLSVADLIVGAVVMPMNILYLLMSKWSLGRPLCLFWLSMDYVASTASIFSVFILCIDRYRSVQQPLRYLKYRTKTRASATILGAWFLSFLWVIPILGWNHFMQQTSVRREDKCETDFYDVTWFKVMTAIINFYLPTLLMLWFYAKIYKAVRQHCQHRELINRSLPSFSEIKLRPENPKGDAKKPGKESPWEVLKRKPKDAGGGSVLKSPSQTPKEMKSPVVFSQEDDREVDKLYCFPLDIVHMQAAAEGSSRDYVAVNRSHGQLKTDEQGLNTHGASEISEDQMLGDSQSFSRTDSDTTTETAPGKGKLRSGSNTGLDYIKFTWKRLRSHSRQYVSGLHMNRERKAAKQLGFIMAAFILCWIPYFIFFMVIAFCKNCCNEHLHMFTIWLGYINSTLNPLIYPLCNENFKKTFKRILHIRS

[8] = test system: α1-adrenergic receptors; settings: cited from earlier work
[9] = biological target: 5-HT2A receptors (Homo sapiens, UniProt P28223); settings: cited from earlier work
Chain of 5-HT2A receptors (P28223 whole entry): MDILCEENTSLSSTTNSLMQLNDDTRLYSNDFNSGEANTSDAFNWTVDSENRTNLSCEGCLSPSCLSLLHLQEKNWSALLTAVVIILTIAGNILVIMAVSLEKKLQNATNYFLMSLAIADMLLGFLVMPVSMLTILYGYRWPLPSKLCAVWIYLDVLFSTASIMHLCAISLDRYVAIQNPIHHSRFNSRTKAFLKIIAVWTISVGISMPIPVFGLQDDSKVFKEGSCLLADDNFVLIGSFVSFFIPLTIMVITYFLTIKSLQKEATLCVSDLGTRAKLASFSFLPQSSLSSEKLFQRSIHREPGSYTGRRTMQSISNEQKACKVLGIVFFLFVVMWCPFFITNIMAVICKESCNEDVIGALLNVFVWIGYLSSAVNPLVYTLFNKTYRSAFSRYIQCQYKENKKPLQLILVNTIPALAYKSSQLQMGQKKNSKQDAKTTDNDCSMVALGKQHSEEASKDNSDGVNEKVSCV

Structure (SMILES): COc1cc(CC(C)N)c(OC)cc1I (racemic) [DOI, 1-(2,5-dimethoxy-4-iodophenyl)-2-aminopropane]
- IC50 [1]: 8 ± 3 nM

Structure (SMILES): CC1CC(C)N1C(=O)C1C=C2c3cccc4[nH]cc(c34)CC2N(C)C1 (stereo not drawn) [LA-SS-Az, (2′S,4′S)-(+)-9,10-Didehydro-6-methylergoline-8β-(trans-2,4-dimethylazetidide)]
- induced gene expression blocked at 1 nM ([2]; 1 nM pretreatment): about 50%
- block of TNF-α induced ICAM1 gene expression at 1 nM ([2]; 1 nM pretreatment): moderately effective
- block of TNF-α induced ICAM1 gene expression at 50 nM ([2]; 50 nM pretreatment): effectively blocked
- effect on ICAM-1 gene expression in rat glioma cells [3]: blocked

Structure (SMILES): CCN(CC)C(=O)[C@@H]1C=C2c3cccc4[nH]cc(c34)C[C@H]2N(C)C1 [LSD, Lysergic acid diethylamide, reference compound]
- block of TNF-α induced ICAM1 gene expression at 1 nM ([2]; 1 nM pretreatment): weak to moderate effects
- TNF-α effect blocked at 50 nM ([2]; 50 nM pretreatment): about 85%

Structure (SMILES): COc1cccc([C@H](O)C2CCN(CCc3ccc(F)cc3)CC2)c1OC [M100907, R(+)-a-(2,3-dimeth-oxyphenyl)-1-[2-(4-fluorophenylethyl)]-4-pipeddine-methanol, reference compound]
- effect of receptor antagonist on the inhibitory effects of (R)-DOI [4]: blocked the effects of (R)-DOI
- effect of receptor antagonist on the inhibitory effects of (R)-DOI ([4]; listed as MDL100907): completely blocked

Structure (SMILES): CCCCCCCCCCCCCC(=O)O[C@@H]1[C@@H](C)[C@@]2(O)[C@@H](C=C(CO)C[C@]3(O)C(=O)C(C)=C[C@@H]23)[C@@H]2C(C)(C)[C@]12OC(C)=O [PMA, Phorbol 12-myristate 13-acetate, reference compound]
- effect on TNF-α mediated expression in the absence of (R)-DOI ([4]; 100 nM prior to TNF-α, ICAM1, VCAM1, IL6): blocks the effects of TNF-α; also recorded: completely block

Structure (SMILES): COc1cc(OC)c(C(=O)CCCCN2CCC3(CC2)NC(=O)NC3=O)cc1NS(=O)(=O)c1ccc(C(F)(F)F)cc1.Cl [RS102221, reference compound]
- effect of receptor antagonist on the inhibitory effects of (R)-DOI ([4]; hydrochloride): did not block; also recorded: had no effect

Structure (SMILES): Cc1cc(NC(=O)Nc2ccc3c(ccn3C)c2)sn1 [SB204741, N-(1-Methyl-1H-indolyl-5-yl)-N″-(3-methyl-5-isothiazolyl)urea, reference compound]
- effect of receptor antagonist on the inhibitory effects of (R)-DOI [4]: did not block; also recorded: had no effect

Structure (SMILES): COc1ccc2c(c[n+](C)c3c4cc5c(cc4ccc23)OCO5)c1OC.[Cl-] [chelerythrine, 1,2-Dimethoxy-12-methyl[1,3]benzodioxolo[5,6-c]phenanth ridinium chloride, reference compound]
- effect of kinase inhibitor on (R)-DOI inhibition of TNF-α induced ICAM-1 expression ([2]; inhibitor 100 nM 30 minutes prior to 1 nM (R)-DOI, then TNF-α): blocked the effects of TNF-α-induced gene expression; also recorded: completely inhibited
- effect of PKC inhibitor on (R)-DOI block of nitrite accumulation [5]: completely inhibited
- effect of PKC inhibitor on (R)-DOI induced inhibition of p65 translocation [6]: blocked

Structure (SMILES): O=C(c1ccc(F)cc1)C1CCN(CCn2c(=O)[nH]c3ccccc3c2=O)CC1 [ketanserin]
- potency at blocking histamine H1 receptors [7]: equipotent
- affinity for α1-adrenergic receptors [8]: high affinity
- selectivity for 5-HT2A receptors over 5-HT2C receptors [9]: ~20 fold
